Data on 15 molecules can be found in patent US20240376085A1 (Janssen Pharmaceutica NV, priority 2021, published 2024).

In one experiment the target is T1, IL-17A : IL-17RA binding (Homo sapiens, UniProt Q16552, K93Q).
T1 construct: Name: IL-17A-Flag
In words: IL-17A(FLAG-tagged):IL-17RA(His-tagged) binding disruption Eu-HTRF assay, Protocol 1. As to conditions: FLAG-IL-17A 2.5 nM at 2x final concentration; average if tested more than once. In outline: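 IC50 came from a one-site competition fit of the acceptor/donor (665/620 nm) HTRF ratio. His-tagged IL-17RA, Eu-anti-FLAG and D2-anti-His were added after a 1 h rt compound preincubation with FLAG-tagged IL-17A dimer in PBS/0.01% Triton X-100, followed by 2 h at rt before reading.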
In general terms: Time-resolved FRET reads energy transfer from a long-lived donor to a nearby acceptor.

For experiment [1], the system named is IL-17A-induced G-CSF production in human normal keratinocyte (NHK). In words: NHK assay: IL-17A-induced G-CSF production in normal human keratinocytes. In kind it is cell-based. Conditions: Homo sapiens, Keratinocyte, 24 h, IL-17A 5 ng/mL, average if tested more than once. In outline: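 Compound titrations are first mixed with recombinant human IL-17A for 1 h at room temperature. The mixture goes onto adult normal human keratinocytes (final IL-17A 5 ng/mL, 5% FBS, 0.2% DMSO) for 24 h at 37 °C. Secreted G-CSF is then measured by HTRF and IC50 fitted.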

T1 sequence (Q16552 with tags, fused parts or gaps K93Q): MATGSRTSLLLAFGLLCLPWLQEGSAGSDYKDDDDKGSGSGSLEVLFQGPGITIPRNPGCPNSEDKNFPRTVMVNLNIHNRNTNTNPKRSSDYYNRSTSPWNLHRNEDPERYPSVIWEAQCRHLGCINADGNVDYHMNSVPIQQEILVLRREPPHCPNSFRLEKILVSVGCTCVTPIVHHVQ

Consider `Cc1nonc1C(=O)N[C@H](c1nc2ccc([C@H](NC(=O)CC3CC(F)(F)C3)C3CC3)cc2[nH]1)C1CCOC(C)(C)C1` (single isomer, unassigned) [Example 173, N—((S)-(6-((R)-Cyclopropyl(2-(3,3-difluorocyclobutyl)acetamido)methyl)-1H-benzo[d]imidazol-2-yl)((S*)-2,2-dimethyltetrahydro-2H-pyran-4-yl)methyl)-4-methyl-1,2,5-oxadiazole-3-carboxamide], for which the IC50 (at IL-17A : IL-17RA binding; in experiment [1]) was over 100 nM throughout.

In the case of `C[C@@H](NC(=O)CCC(F)(F)F)c1ccc2[nH]c([C@@H](NC(=O)c3cnn(CCOC(F)(F)F)c3)C3CCC(F)(F)CC3)nc2c1` [Example 26, N—[(S)-(4,4-Difluorocyclohexyl)-[6-[(1R)-1-(4,4,4-trifluorobutanoylamino)ethyl]-1H-benzimidazol-2-yl]methyl]-1-[2-(trifluoromethoxy)ethyl]pyrazole-4-carboxamide], the IC50 (at IL-17A : IL-17RA binding; in experiment [1]) was over 100 nM in each case.

For the molecule `CC(CC(=O)N[C@@H](c1ccc2nc([C@H](CC(C)(C)C(F)(F)F)NC(=O)c3nonc3C3CC3)[nH]c2c1)C1CC1)C(F)(F)F` (single isomer, unassigned) [Example 181, 4-Cyclopropyl-N—((S)-1-(6-((R)-cyclopropyl((R*)-4,4,4-trifluoro-3-methylbutanamido)methyl)-1H-benzo[d]imidazol-2-yl)-4,4,4-trifluoro-3,3-dimethylbutyl)-1,2,5-oxadiazole-3-carboxamide], the IC50 (on IL-17A : IL-17RA binding; in experiment [1]) was under 50 nM throughout.

In the case of `C[C@@H](NC(=O)CCC(F)(F)F)c1ccc2[nH]c([C@@H](NC(=O)c3cnn(CC4CC4)n3)C3CCC(F)(F)CC3)nc2c1` [Example 8, 2-(Cyclopropylmethyl)-N—[(S)-(4,4-difluorocyclohexyl)-[6-[(1R)-1-(4,4,4-trifluorobutanoylamino)ethyl]-1H-benzimidazol-2-yl]methyl]triazole-4-carboxamide], the IC50 (at IL-17A : IL-17RA binding; in experiment [1]) was over 100 nM in each case.

Turning to `Cc1nonc1C(=O)N[C@H](c1nc2ccc([C@H](NC(=O)CC3CC(F)(F)C3)C3CC3)cc2[nH]1)[C@@H]1C[C@H]2C[C@H]2C1` [Example 254, N—((S)-((1R,3s,5S)-Bicyclo[3.1.0]hexan-3-yl)(6-((R)-cyclopropyl(2-(3,3-difluorocyclobutyl)acetamido)methyl)-1H-benzo[d]imidazol-2-yl)methyl)-4-methyl-1,2,5-oxadiazole-3-carboxamide], the figures for the IC50 (at IL-17A : IL-17RA binding; in experiment [1]) were under 50 nM and over 100 nM, respectively.

With `CCn1ncc(C(=O)N[C@H](c2nc3cc([C@@H](C)NC(=O)CCC(F)(F)F)ccc3[nH]2)C2CCC(F)(F)CC2)n1` [Example 7, N—[(S)-(4,4-Difluorocyclohexyl)-[6-[(1R)-1-(4,4,4-trifluorobutanoylamino)ethyl]-1H-benzimidazol-2-yl]methyl]-2-ethyl-triazole-4-carboxamide], the IC50 (at IL-17A : IL-17RA binding; in experiment [1]) was over 100 nM in each case.

Turning to `C[C@@H](NC(=O)CCC(F)(F)F)c1ccc2[nH]c([C@@H](NC(=O)c3cnn(CC45CC(C#N)(C4)C5)n3)C3CCC(F)(F)CC3)nc2c1` [Example 78, 2-((3-Cyanobicyclo[1.1.1]pentan-1-yl)methyl)-N—((S)-(4,4-difluorocyclohexyl)(5-((R)-1-(4,4,4-trifluorobutanamido)ethyl)-1H-benzo[d]imidazol-2-yl)methyl)-2H-1,2,3-triazole-4-carboxamide], the IC50 (at IL-17A : IL-17RA binding; in experiment [1]) was over 100 nM each time.

Turning to `CC(Cn1nncc1C(=O)N[C@H](c1nc2ccc([C@@H](C)NC(=O)CCC(F)(F)F)cc2[nH]1)C1CCC(F)(F)CC1)C(F)(F)F` (single isomer, unassigned) [Example 71, N—((S)-(4,4-Difluorocyclohexyl)(6-((R)-1-(4,4,4-trifluorobutanamido)ethyl)-1H-benzo[d]imidazol-2-yl)methyl)-1-((R*)-3,3,3-trifluoro-2-methylpropyl)-1H-1,2,3-triazole-5-carboxamide], the IC50 (at IL-17A : IL-17RA binding; in experiment [1]) was over 100 nM in each case.

For the molecule `C[C@@H](NC(=O)CCC(F)(F)F)c1ccc2[nH]c([C@@H](NC(=O)c3cnn(CCC(F)(F)F)n3)[C@@H]3CCCC(F)(F)C3)nc2c1` [Example 265], the IC50 (on IL-17A : IL-17RA binding; in experiment [1]) was over 100 nM in each case.

Regarding `Cc1nonc1C(=O)N[C@@H](CC(C)(C)C(F)F)c1nc2ccc([C@H](NC(=O)CC3CC(F)(F)C3)C3CC3)cc2[nH]1` [Example 233, N—((S)-1-(6-((R)-Cyclopropyl(2-(3,3-difluorocyclobutyl)acetamido)methyl)-1H-benzo[d]imidazol-2-yl)-4,4-difluoro-3,3-dimethylbutyl)-4-methyl-1,2,5-oxadiazole-3-carboxamide], the IC50 (as a rule, the midpoint of a concentration-inhibition curve) at IL-17A : IL-17RA binding is under 50 nM; in experiment [1] it was over 100 nM.

On to `C[C@@H](NC(=O)CCC(F)(F)F)c1ccc2[nH]c([C@@H](NC(=O)c3ncnn3CC3CC3)C3CCC(F)(F)CC3)nc2c1` [Example 30, 2-(Cyclopropylmethyl)-N—[(S)-(4,4-difluorocyclohexyl)-[6-[(1R)-1-(4,4,4-trifluorobutanoylamino)ethyl]-1H-benzimidazol-2-yl]methyl]-1,2,4-triazole-3-carboxamide], for which the IC50 at IL-17A : IL-17RA binding is 50 to 100 nM; in experiment [1], over 100 nM.

For `CC(C)(OC[C@H](NC(=O)c1nonc1C1CC1)c1nc2ccc([C@H](NC(=O)CC3CC(F)(F)C3)C3CC3)cc2[nH]1)C(F)(F)F` [Example 159, 4-Cyclopropyl-N—((R)-1-(6-((R)-cyclopropyl(2-(3,3-difluorocyclobutyl)acetamido)methyl)-1H-benzo[d]imidazol-2-yl)-2-((1,1,1-trifluoro-2-methylpropan-2-yl)oxy)ethyl)-1,2,5-oxadiazole-3-carboxamide], the IC50 (at IL-17A : IL-17RA binding; in experiment [1]) was under 50 nM throughout.

For `CC(C)n1nccc1C(=O)N[C@@H](c1nc2ccc([C@H](NC(=O)CC3CC(F)(F)C3)C3CC3)cc2[nH]1)[C@@H]1CCCCO1` (relative stereo) [Example 251, N—((S*)-(6-((R)-Cyclopropyl(2-(3,3-difluorocyclobutyl)acetamido)methyl)-1H-benzo[d]imidazol-2-yl)((S*)-tetrahydro-2H-pyran-2-yl)methyl)-1-isopropyl-1H-pyrazole-5-carboxamide], the IC50 (at IL-17A : IL-17RA binding; in experiment [1]) was over 100 nM each time.

`C[C@@H](NC(=O)CC(C(F)(F)F)C(F)(F)F)c1ccc2nc([C@@H](NC(=O)c3cccc(C#N)c3)C3CCC(F)(F)CC3)[nH]c2c1` [Example 132, 3-Cyano-N—((S)-(4,4-difluorocyclohexyl)(6-((R)-1-(4,4,4-trifluoro-3-(trifluoromethyl)butanamido)ethyl)-1H-benzo[d]imidazol-2-yl)methyl)benzamide]: the IC50 (on IL-17A : IL-17RA binding; in experiment [1]) was over 100 nM throughout.

As for `C[C@@H](NC(=O)CCC(F)(F)F)c1ccc2[nH]c([C@@H](NC(=O)C3(C)CC3(F)F)C3CCC(F)(F)CC3)nc2c1` (relative stereo) [Example 109, N—((S)-(4,4-Difluorocyclohexyl)(5-((R*)-1-(4,4,4-trifluorobutanamido)ethyl)-1H-benzo[d]imidazol-2-yl)methyl)-2,2-difluoro-1-methylcyclopropane-1-carboxamide], the IC50 (at IL-17A : IL-17RA binding; in experiment [1]) was over 100 nM each time.
